Test results as given in US10842783B2, “Avibactam and carbapenems antibacterial agents” (THE JOHNS HOPKINS UNIVERSITY, priority 2017, dated 2020).
“Also recorded” adds a separate entry of the source. Where two headings read alike, the source gives them in different places.

Columns and labels:
M. abscessus ATCC 19977 = assay: Broth microdilution MIC of carbapenems with and without β-lactamase inhibitors, reference strain; assay type: cell-based, Mycobacterium abscessus; conditions: for MIC: Mycobacteroides abscessus; for Ability of the β-lactamase inhibitor to reduce MICs of carbapenems, in words: inhibitor at 4 μg/mL; for Minimum inhibitory concentration, 7H9 + avibactam / Minimum inhibitory concentration, CAMHB + avibactam: avibactam at fixed 4 μg/mL; for Minimum inhibitory concentration, 7H9 + sulbactam: sulbactam at fixed 4 μg/mL; for Minimum inhibitory concentration, 7H9 + tazobactam: tazobactam at fixed 4 μg/mL
Experimental: (§1) All strains were initially grown in 7H9 complete medium composed of Middlebrook 7H9 broth (Difco) supplemented with 0.5% glycerol, 10% oleic acid-albumin-dextrose-catalase and 0.05% Tween-80 at 37° C. with constant shaking. A standard broth microdilution method was used to determine MIC. Briefly, M. abscessus strains were grown as described above and these cultures, at exponential phase (A600 nm˜0.6-0.8), were used to inoculate 10^5 colony forming units (CFU) into each well of microtiter culture plates containing a carbapenem at two fold serial dilutions ranging from 256 to 0.25 μg/mL. An identical setup but with wells containing 4 μg/mL of avibactam was used to assess the effect of this agent on each carbapenem. Carbapenems studied were procured commercially from Sigma-Aldrich and include ertapenem, meropenem, imipenem, doripenem, biapenem, faropenem, tebipenem and panipenem. β-lactamase inhibitors sulbactam, tazobactam and avibactam were also procured from Sigma-Aldrich. In addition, to establish baseline antibacterial susceptibility for each strain we also determined MICs for drugs currently used to treat M. abscessus infections. They are linezolid, cefoxitin, kanamycin, ciprofloxacin, moxifloxacin, amikacin, tigecycline, imipenem, tobramycin, trimethoprim/sulfamethoxazole, and clarithromycin. M. abscessus growth was evaluated by visual inspection of pellets after 3 days of incubation (the exception being clarithromycin for which incubation was extended to 14 days) at 30° C. without shaking per CLSI guidelines. In addition to assessment in 7H9 complete medium, we also used cation adjusted Mueller-Hinton broth for MIC studies for the reference strain M. abscessus ATCC 19977. All experiments were repeated and the final data represent the average of two biological replicates.
We studied the utility of β-lactamase inhibitors sulbactam, tazobactam, and avibactam in restoring in vitro potencies of carbapenems against M. abscessus using the reference drug-susceptible strain ATCC 19977. We determined MICs of ertapenem, meropenem, imipenem, doripenem, biapenem, faropenem, tebipenem and panipenem alone or in the presence of the aforementioned […] β-lactamase inhibitors.

[1] = system: M. abscessus clinical strains; assay: Broth microdilution MIC of carbapenems with and without avibactam, twenty eight clinical isolates; assay type: cell-based, Mycobacterium abscessus; conditions: for Average reduction in MICs of the carbapenems in combination with avibactam: twenty eight clinical strains; for Average reduction in MICs of the carbapenems in combination with avibactam / Effect of avibactam on the MIC of the carbapenem, in words: avibactam 4 μg/mL; for Effect of avibactam on the MIC of the carbapenem, in words: clinical strains
Source text: Twenty eight unique clinical isolates of M. abscessus were used in this study. These strains were obtained de-identified from the archive of the clinical microbiology laboratory of the Johns Hopkins University Hospital per institutional ethical guidelines. They were isolated over a 10 year period, from 2005-2015, from patients that were temporally and geographically unrelated. No two isolates are from the same patient. Those displaying a high level of resistance to antibacterials used for M. abscessus infection were selected for this study. All strains obtained prior to 2014 were identified to the M. abscessus complex level using a variety of methods including 16S rDNA sequencing in conjunction with selected biochemical testing such as sodium citrate. More recent isolates (those isolated after 2014) were identified using MALDI ToF mass spectrometry in which a Bruker MicroFlex LT (MicroFlex LT) mass spectrometer and Bruker Biotyper software and existing database (version 2.0, Bruker) were employed. Sub-speciation within the M. abscessus complex, which helps to distinguish between M. abscessus sensu stricto, M. massiliense, and M. bolletii, was not done as this is not per the current standard of care at the Johns Hopkins Clinical Mycobacteriology Laboratory. Distinguishing between M. abscessus sensu stricto and M. massiliense is most often performed to guide therapy since M. massiliense is known to have a non-funtional erm gene and is therefore susceptible to macrolides. However, due to the high number of macrolide resistant M. abscessus complex isolates recovered at Johns Hopkins, most patient isolates are subjected to drug susceptibility testing, making speciation within the complex of lesser importance. Thus, the proportion of each subspecies within the M. abscessus complex for the Johns Hopkins strain collection is not known. M. abscessus ATCC 19977 was included as a reference drug-sensitive strain.
as §1

[2] = in vivo; cited from earlier work
[3] = ATCC19977, 7H9 broth, drug alone, read-out: Minimum inhibitory concentration, 7H9 broth
[4] = ATCC19977, cation-adjusted Mueller-Hinton broth, drug alone, read-out: Minimum inhibitory concentration, CAMHB only
[5] = ATCC19977, carbapenem alone, single values given, read-out: MIC of carbapenems against the drug sensitive control strain
[6] = cation-adjusted Mueller-Hinton broth
[7] = with avibactam, against M. abscessus

Compound | MIC (M. abscessus ATCC 19977; [3]) | MIC (M. abscessus ATCC 19977; [4]) | Ability of the β-lactamase inhibitor to reduce MICs of carbapenems, in words (M. abscessus ATCC 19977) | Average reduction in MICs of the carbapenems in combination with avibactam [1] | Minimum inhibitory concentration, 7H9 + avibactam (M. abscessus ATCC 19977; 7H9 broth) | Minimum inhibitory concentration, 7H9 + sulbactam (M. abscessus ATCC 19977; 7H9 broth) | Minimum inhibitory concentration, 7H9 + tazobactam (M. abscessus ATCC 19977; 7H9 broth) | MIC (M. abscessus ATCC 19977; [5]) | Minimum inhibitory concentration, CAMHB + avibactam (M. abscessus ATCC 19977; [6]) | Average peak plasma concentration [2] | Half-life [2] | Effect of avibactam on the MIC of the carbapenem, in words [1] | MIC (M. abscessus ATCC 19977; ATCC19977, read-out: Minimum inhibitory concentration, 7H9 broth) | Fold decrease of MIC by avibactam [1, 7] | MIC of carbapenem as reduced by avibactam [1, 7]
NC(=O)[C@@H]1CC[C@@H]2CN1C(=O)N2OS(=O)(=O)O [Avibactam, avibactam] | > 256 µg/mL | > 256 µg/mL | most active |  |  |  |  |  |  |  |  |  |  |  | 
C[C@@H](O)[C@H]1C(=O)N2C(C(=O)[O-])=C(SC3Cn4cnc[n+]4C3)[C@H](C)[C@H]12 (some centres unmarked) [Biapenem, biapenem] | 8 to 16 µg/mL | 16 to 32 µg/mL |  | 5 fold | 2 to 4 µg/mL | 4 to 8 µg/mL | 8 to 16 µg/mL | 16 µg/mL | 8 to 16 µg/mL |  |  |  |  |  | 
C[C@@H](O)[C@H]1C(=O)N2C(C(=O)O)=C(S[C@@H]3CN[C@H](CNS(N)(=O)=O)C3)[C@H](C)[C@H]12 [Doripenem, doripenem] | 8 to 16 µg/mL | 16 to 32 µg/mL |  | 6 fold | 2 to 4 µg/mL | 8 to 16 µg/mL | 8 to 16 µg/mL | 16 µg/mL | 4 to 8 µg/mL |  |  |  |  |  | 
C[C@@H](O)[C@H]1C(=O)N2C(C(=O)O)=C(S[C@@H]3CN[C@H](C(=O)Nc4cccc(C(=O)O)c4)C3)[C@H](C)[C@H]12 [Ertapenem, ertapenem] | 64 to 128 µg/mL | 128 to 256 µg/mL |  | > 13 fold | 4 to 8 µg/mL | >64 µg/mL | 32 to 64 µg/mL | 128 µg/mL | 8 to 16 µg/mL | ~150 µg/mL | ~4 h | levels that are therapeutically relevant; also recorded: levels achievable in the blood |  |  | 
C[C@@H](O)[C@H]1C(=O)N2C(C(=O)O)=C([C@H]3CCCO3)S[C@H]12 [Faropenem, faropenem] | 32 to 64 µg/mL | 64 to 128 µg/mL |  | 3 fold | 8 to 16 µg/mL | 16 to 32 µg/mL | 32 to 64 µg/mL | 64 µg/mL | 16 to 32 µg/mL |  |  | least effective |  |  | 
C[C@@H](O)[C@H]1C(=O)N2C(C(=O)O)=C(SCCN=CN)C[C@H]12 [Imipenem, imipenem] | 4 to 8 µg/mL | 8 to 16 µg/mL |  | 2 fold | 2 to 4 µg/mL | 4 to 8 µg/mL | 2 to 4 µg/mL | 8 µg/mL | 4 to 8 µg/mL |  |  |  |  |  | 
C[C@@H](O)[C@H]1C(=O)N2C(C(=O)O)=C(S[C@@H]3CN[C@H](C(=O)N(C)C)C3)[C@H](C)[C@H]12 [Meropenem, meropenem] | 8 to 16 µg/mL | 32 to 64 µg/mL |  | 6 fold | 2 to 4 µg/mL | 8 to 16 µg/mL | 8 to 16 µg/mL | 16 µg/mL | 4 to 8 µg/mL |  |  |  |  |  | 
CC(=N)N1CC[C@H](SC2=C(C(=O)O)N3C(=O)[C@H]([C@@H](C)O)[C@H]3C2)C1 [Panipenem, panipenem] | 64 to 128 µg/mL | 64 to 128 µg/mL |  | 8 fold | 8 to 16 µg/mL | 16 to 32 µg/mL | 32 to 64 µg/mL | 128 µg/mL | 8 to 16 µg/mL | ~22 µg/mL |  | levels that are therapeutically relevant; also recorded: levels achievable in the blood |  |  | 
CC1(C)[C@H](C(=O)O)N2C(=O)C[C@H]2S1(=O)=O [Sulbactam, sulbactam] |  |  | failed to reduce the MICs; also recorded: failed to observe significant reduction in MIC |  |  |  |  |  |  |  |  |  | > 64 µg/mL |  | 
C[C@]1(Cn2ccnn2)[C@H](C(=O)O)N2C(=O)C[C@H]2S1(=O)=O [Tazobactam, tazobactam] | > 64 µg/mL |  | failed to reduce the MICs; also recorded: failed to observe significant reduction in MIC |  |  |  |  |  |  |  |  |  |  |  | 
C[C@@H](O)[C@H]1C(=O)N2C(C(=O)O)=C(SC3CN(C4=NCCS4)C3)[C@H](C)[C@H]12 [Tebipenem, tebipenem] | 128 to 256 µg/mL | 128 to 256 µg/mL |  | > 38 fold | 4 to 8 µg/mL | >64 µg/mL | >64 µg/mL | 256 µg/mL | 8 to 16 µg/mL | ~8 µg/mL | 1 h | levels that are therapeutically relevant; also recorded: largest reduction in MIC |  | 32-64 fold | 4 to 8 µg/mL
O=C(O)[C@H]1/C(=C/CO)O[C@@H]2CC(=O)N21 [clavulanate] |  |  | failed to observe significant reduction in MIC |  |  |  |  |  |  |  |  |  |  |  | 
